ChEMBL document CHEMBL1135130, “Substituted tetrahydrofuroyl-1-phenylalanine derivatives as potent and specific VLA-4 antagonists” (Bioorg Med Chem Lett, 2002)

Tests used:
[1] = Plasma clearance determined; type: ADME, organism-based; conditions: read-out: Clp
[2] = Oral bioavailability; type: ADME, organism-based; conditions: eutheria, in vivo
Integrin alpha-4/beta-1 [3] = molecular target: T1, Integrin alpha-4/beta-1 (Homo sapiens, UniProt P05556+P13612); assay: Inhibition of alpha4-beta1 (very late) antigen binding with VCAM-1 immunoglobulin; type: protein-complex assay
Integrin alpha-4/beta-1 [4] = molecular target: T1, Integrin alpha-4/beta-1; assay: Inhibition of alpha4-beta1 (very late) antigen binding with VCAM-1 immunoglobulin plus 5% human plasma; type: cell-free
Integrin alpha-4/beta-7 [5] = molecular target: T2, Integrin alpha-4/beta-7 (Homo sapiens, UniProt P13612+P26010); assay: Inhibition of alpha4-beta7 antigen with MAdCAM immunoglobulin; type: protein-complex assay
T2 sequence (P13612 whole entry): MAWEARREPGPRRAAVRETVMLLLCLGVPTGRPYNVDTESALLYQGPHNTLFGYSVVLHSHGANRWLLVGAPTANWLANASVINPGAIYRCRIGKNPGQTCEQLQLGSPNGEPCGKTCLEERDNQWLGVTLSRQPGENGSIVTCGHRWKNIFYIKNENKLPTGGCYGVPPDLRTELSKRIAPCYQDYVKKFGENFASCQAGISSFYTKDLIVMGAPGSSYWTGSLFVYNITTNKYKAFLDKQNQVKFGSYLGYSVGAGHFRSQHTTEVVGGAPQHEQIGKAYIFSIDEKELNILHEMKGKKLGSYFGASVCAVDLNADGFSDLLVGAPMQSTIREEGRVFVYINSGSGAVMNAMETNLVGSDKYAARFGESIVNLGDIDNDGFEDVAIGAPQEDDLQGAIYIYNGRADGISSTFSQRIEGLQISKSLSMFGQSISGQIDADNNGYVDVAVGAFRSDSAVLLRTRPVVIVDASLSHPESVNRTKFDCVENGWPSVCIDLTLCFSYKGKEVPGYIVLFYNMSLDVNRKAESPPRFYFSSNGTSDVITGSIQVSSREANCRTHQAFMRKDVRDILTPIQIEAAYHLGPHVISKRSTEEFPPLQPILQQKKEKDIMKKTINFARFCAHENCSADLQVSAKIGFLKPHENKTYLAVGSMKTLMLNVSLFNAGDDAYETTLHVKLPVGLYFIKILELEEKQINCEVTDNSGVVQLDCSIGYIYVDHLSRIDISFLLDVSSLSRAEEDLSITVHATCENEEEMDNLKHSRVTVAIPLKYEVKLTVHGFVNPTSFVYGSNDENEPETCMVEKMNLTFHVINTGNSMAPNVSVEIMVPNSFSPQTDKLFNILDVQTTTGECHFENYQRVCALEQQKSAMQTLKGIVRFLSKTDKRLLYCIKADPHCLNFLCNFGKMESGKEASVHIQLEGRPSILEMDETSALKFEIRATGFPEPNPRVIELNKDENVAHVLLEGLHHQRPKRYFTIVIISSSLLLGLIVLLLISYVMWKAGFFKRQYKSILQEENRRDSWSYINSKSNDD
T2 sequence (P26010 whole entry): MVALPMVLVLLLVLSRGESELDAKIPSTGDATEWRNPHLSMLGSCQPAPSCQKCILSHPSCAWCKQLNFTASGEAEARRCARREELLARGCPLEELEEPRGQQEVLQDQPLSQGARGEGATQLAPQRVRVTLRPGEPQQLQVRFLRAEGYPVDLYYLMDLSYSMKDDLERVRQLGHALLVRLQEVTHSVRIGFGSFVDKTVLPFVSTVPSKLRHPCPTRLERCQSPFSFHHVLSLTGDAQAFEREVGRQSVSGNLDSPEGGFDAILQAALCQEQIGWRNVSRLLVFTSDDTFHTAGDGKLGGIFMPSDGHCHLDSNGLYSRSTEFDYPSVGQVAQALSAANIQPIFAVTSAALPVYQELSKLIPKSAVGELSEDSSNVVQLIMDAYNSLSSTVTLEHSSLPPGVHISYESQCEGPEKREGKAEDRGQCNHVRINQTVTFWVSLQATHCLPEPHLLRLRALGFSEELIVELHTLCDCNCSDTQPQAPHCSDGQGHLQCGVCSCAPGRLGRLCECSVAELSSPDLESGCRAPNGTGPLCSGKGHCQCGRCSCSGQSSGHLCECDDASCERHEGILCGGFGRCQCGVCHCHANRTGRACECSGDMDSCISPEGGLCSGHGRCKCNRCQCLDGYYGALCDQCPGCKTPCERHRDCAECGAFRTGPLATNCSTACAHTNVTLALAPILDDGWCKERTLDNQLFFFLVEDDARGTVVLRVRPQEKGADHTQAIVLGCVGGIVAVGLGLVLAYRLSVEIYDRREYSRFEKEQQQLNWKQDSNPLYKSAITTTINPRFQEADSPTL

[6] = molecular target: Integrin alpha-4/beta-7 (Homo sapiens) (UniProt P13612+P26010); assay: Selectivity for alpha4-beta7 to that of alpha4-beta1; type: protein-complex assay
Integrin alpha-4/beta-7 [7] = molecular target: T2, Integrin alpha-4/beta-7; assay: Inhibition of alpha4-beta7 integrin binding to MAdCAM immunoglobulin; type: protein-complex assay
[8] = Selectivity for alpha4-beta7 over alpha4-beta1 integrins

T1 sequence (P05556 whole entry, one chain of several): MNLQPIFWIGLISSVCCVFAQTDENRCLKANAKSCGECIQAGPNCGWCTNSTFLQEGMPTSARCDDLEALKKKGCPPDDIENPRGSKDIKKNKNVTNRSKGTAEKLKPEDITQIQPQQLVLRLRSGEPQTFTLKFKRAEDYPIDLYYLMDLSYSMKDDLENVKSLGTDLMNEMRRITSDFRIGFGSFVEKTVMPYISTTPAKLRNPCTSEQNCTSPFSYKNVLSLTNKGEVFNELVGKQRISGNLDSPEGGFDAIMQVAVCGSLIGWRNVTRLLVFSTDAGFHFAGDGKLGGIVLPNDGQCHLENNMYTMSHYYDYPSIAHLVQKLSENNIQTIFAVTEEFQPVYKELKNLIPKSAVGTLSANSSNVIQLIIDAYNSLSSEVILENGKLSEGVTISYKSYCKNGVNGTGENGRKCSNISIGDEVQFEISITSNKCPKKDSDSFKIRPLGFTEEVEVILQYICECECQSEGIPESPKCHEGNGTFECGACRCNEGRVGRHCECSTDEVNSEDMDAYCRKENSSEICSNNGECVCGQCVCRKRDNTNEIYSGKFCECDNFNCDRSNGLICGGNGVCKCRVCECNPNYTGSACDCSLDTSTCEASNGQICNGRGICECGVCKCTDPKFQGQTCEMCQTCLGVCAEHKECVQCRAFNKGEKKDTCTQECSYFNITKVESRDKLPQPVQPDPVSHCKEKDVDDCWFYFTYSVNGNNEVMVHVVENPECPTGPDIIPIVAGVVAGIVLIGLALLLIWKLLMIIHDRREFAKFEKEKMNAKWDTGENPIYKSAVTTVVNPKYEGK

Work on `COc1cccc(OC)c1-c1ccc(C[C@H](NC(=O)[C@@]2(C)CCCO2)C(=O)O)cc1` yielded a clearance [1] of 2.9 mL/min/kg, a bioavailability [2] of 51% and an IC50 (Integrin alpha-4/beta-1 [3]) of 0.34 nM. For the same compound, the IC50 (Integrin alpha-4/beta-1 [4]) was 3.61 nM, the IC50 (Integrin alpha-4/beta-7 [5]) was 7.09 nM and the Ratio [6] was 21.

For `COc1ccccc1-c1ccc(C[C@H](NC(=O)[C@@]2(CC(=O)N3CCOCC3)CCCO2)C(=O)O)cc1`, the IC50 (Integrin alpha-4/beta-1 [3]) was 23.1 nM, the IC50 (Integrin alpha-4/beta-7 [7]) was 11 nM and the Ratio [8] was 11.

For `COCCC[C@]1(C(=O)N[C@@H](Cc2ccc(-c3c(OC)cccc3OC)cc2)C(=O)O)CCCO1`, the clearance [1] was 81.8 mL/min/kg, the bioavailability [2] was 1.9% and the IC50 (Integrin alpha-4/beta-1 [3]) was 0.35 nM. It also gave an IC50 (Integrin alpha-4/beta-1 [4]) of 0.61 nM, an IC50 (Integrin alpha-4/beta-7 [5]) of 7.8 nM and a Ratio [6] of 22.
